Measured values published in patent US12036270B2, “Method for immunomodulation of using aza-podophyllotoxin derivatives” (Sistema Universitario Ana G. Mendez, priority 2015, dated 2024).
Where “and” joins values, the source holds several entries; their conditions need not be identical. Equal values may be shown once.

System: mouse splenocytes
Experiment: in vitro stimulation of mouse splenocytes/lymphocytes, cytokine release measured in supernatant by protein microarray chip
Assay type: cell-based
Details: for IL-6 produced: Example 1 and b94-b99; for GCSF levels: Example 2 and b94-b99; for cytokine milieu (TH1/TH2/TH17 bias): profile of AP-treated mouse splenocytes
Protocol: A total of 2×10^5 mouse splenocytes per well were cultured in a humidified atmosphere at 37° C. and 5% CO2 in round-bottomed 96-well culture plates for five days with the AP compounds […]. Concanavalin A ([…]) and culture media were used as positive and negative controls, respectively. Plates were centrifuged at 1,200 RPM for five minutes, and supernatants were collected. The resulting cytokine profile produced after lymphocyte stimulation was analyzed using a fluorescently-labeled protein microarray chip as indicated by the manufacturer (RayBiotech, Norcross, Ga., USA).
The immunomodulatory effect of the AP compounds was assessed by in vitro stimulation of mouse lymphocytes for five days.

[1] = mouse splenocytes, five days, listed as AP-102
[2] = mouse splenocytes, five days, listed as AP-103
[3] = mouse splenocytes, five days, listed as AP-311
[4] = mouse splenocytes, five days, listed as AP-312

Compound	IL-12 (IL-12p70) induced (mouse splenocytes, five days)	IL-6 produced (mouse splenocytes, five days)	GCSF levels (mouse splenocytes, five days)	G-CSF induced (summary / preliminary data) (mouse splenocytes, five days)	IL-6 induced (summary / preliminary data) (mouse splenocytes, five days)	cytokine milieu (TH1/TH2/TH17 bias)	IL-1b induced (mouse splenocytes, five days)	IL-23 induced (mouse splenocytes, five days)	IL-15 induced (mouse splenocytes, five days)	further results
COc1ccc(C2C3=C(COC3=O)N(CCO)c3cc4c(cc32)OCO4)cc1OC (stereo not drawn) [AP102]	29 pg/mL	257 pg/mL	736 pg/mL	2208 pg/mL	772 pg/mL	highest TH17 cytokine biased, followed by a close TH2 biased and a smaller TH1 cytokine milieu				IL-2 induced (mouse splenocytes, five days): 17 pg/mL; IL-17 induced (mouse splenocytes, five days): 294 pg/mL; IL-6 produced [1]: 257.35 pg/mL; GCSF levels [1]: 735.83 pg/mL; IL-2 induced [1]: 17.36 pg/mL; IL-12 (IL-12p70) induced [1]: 29.09 pg/mL
COc1cccc(C2C3=C(COC3=O)N(CCO)c3cc4c(cc32)OCO4)c1 (stereo not drawn) [AP103]	21 pg/mL	375 pg/mL	858 pg/mL	2575 pg/mL	1125 pg/mL	high TH2-type cytokines, but equally comparably low TH1 and TH2	3.95 pg/mL			IL-6 produced [2]: 535.06 pg/mL; GCSF levels [2]: 858.15 pg/mL; IL-12 (IL-12p70) induced [2]: 35.70 pg/mL
O=C1OCC2=C1C(c1ccccc1)c1cc3c(cc1N2CCO)OCO3 (stereo not drawn) [AP104]	22 pg/mL	261 pg/mL and 260.85 pg/mL	690 pg/mL and 690.39 pg/mL	2071 pg/mL	782 pg/mL	high TH2-type cytokines, but equally comparably low TH1 and TH2		58 pg/mL and 58.48 pg/mL		IFN-gamma induced (mouse splenocytes, five days): 104.58 pg/mL; IL-2p70 induced (so in the source) (mouse splenocytes, five days): 21.99 pg/mL; IL-10 induced (mouse splenocytes, five days): 14 pg/mL and 13.78 pg/mL
COc1cc(C2C3=C(COC3=O)N(CCO)c3cc4c(cc32)CCC4)cc(OC)c1O (stereo not drawn) [AP205]	60 pg/mL and 60.14 pg/mL	1445 pg/mL and 1444.71 pg/mL	2336 pg/mL and 2336.49 pg/mL	7166 pg/mL	4351 pg/mL	high TH2-type cytokines, but equally comparably low TH1 and TH2	19.45 pg/mL	80 pg/mL and 79.96 pg/mL	94 pg/mL and 94.04 pg/mL	IL-1a induced (mouse splenocytes, five days): 20 pg/mL and 20.29 pg/mL; IL-9 induced (mouse splenocytes, five days): 30 pg/mL and 30.45 pg/mL
COc1ccc(C2C3=C(COC3=O)N(CCO)c3cc4c(cc32)OCCO4)c(OC)c1OC (stereo not drawn) [AP311]		184 pg/mL			551 pg/mL	strong TH2 cytokine milieu, followed by a TH17, and a smaller TH1 cytokine profile		27 pg/mL	56 pg/mL	IL-6 produced [3]: 183.76 pg/mL; IL-23 induced [3]: 26.66 pg/mL
COc1cccc(C2C3=C(COC3=O)N(CCO)c3cc4c(cc32)OCCO4)c1OC (stereo not drawn) [AP312]	13 pg/mL	270 pg/mL			810 pg/mL	strong TH2 cytokine milieu, followed by a TH17, and a smaller TH1 cytokine profile	11.89 pg/mL			IL-6 produced [4]: 269.89 pg/mL; IL-12 (IL-12p70) induced [4]: 27.89 pg/mL
